Assay results taken from US20050101595A1, “N-containing cycloalkyl-substituted amino-thiazole derivatives and pharmaceutical compositions for inhibiting cell proliferation and methods for their use” (PFIZER INC., priority 2003, published 2005).
pIC50, pKi: −log10 of the molar value. Counter-ions that a name gives are not always drawn. Like-named read-outs stand apart in the source and are kept apart here.

What was measured:
CDK2/Cyclin A = CDK2/Cyclin A (Homo sapiens, UniProt P24941); test: Inhibition of CDK2/Cyclin A Retinoblastoma Kinase Activity; type: biochemical; conditions: for pKi: apparent Ki, CDK2/proteolyzed cyclin A, Rb fragment substrate, 25 μM ATP
Method in brief: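 CDK2 (10 or 19 nM), insect-cell expressed, gel-filtration purified with truncated cyclin A; Rb fragment substrate; 25 μM ATP; 10 mM HEPES pH 7.4, 10 mM MgCl2; 30° C, 60 or 75 min; EDTA stop; phosphocellulose/nitrocellulose capture, phosphorimager. % inhibition vs DMSO control, no-enzyme background subtracted.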

[1] = target: human CDK4 and genetically truncated (1-264) cyclin D3 (Homo sapiens, UniProt P11802); test: Inhibition of CDK4/Cyclin D Retinoblastoma Kinase Activity; type: biochemical; conditions: for pKi: apparent Ki, CDK4/truncated cyclin D3, Rb fragment substrate, 25 μM ATP
human CDK4 and genetically truncated (1-264) cyclin D3, sequence (P11802 whole entry, the tested form may be a part): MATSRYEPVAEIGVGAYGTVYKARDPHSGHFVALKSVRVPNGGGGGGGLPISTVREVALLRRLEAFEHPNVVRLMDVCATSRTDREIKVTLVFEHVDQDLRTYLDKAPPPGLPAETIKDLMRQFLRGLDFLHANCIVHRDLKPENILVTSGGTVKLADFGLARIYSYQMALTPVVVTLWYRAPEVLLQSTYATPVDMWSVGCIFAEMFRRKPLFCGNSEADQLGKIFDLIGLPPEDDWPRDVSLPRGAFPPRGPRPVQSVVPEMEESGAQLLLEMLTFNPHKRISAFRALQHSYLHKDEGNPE
human CDK4 and genetically truncated (1-264) cyclin D3, sequence (P30281 1-264 partner): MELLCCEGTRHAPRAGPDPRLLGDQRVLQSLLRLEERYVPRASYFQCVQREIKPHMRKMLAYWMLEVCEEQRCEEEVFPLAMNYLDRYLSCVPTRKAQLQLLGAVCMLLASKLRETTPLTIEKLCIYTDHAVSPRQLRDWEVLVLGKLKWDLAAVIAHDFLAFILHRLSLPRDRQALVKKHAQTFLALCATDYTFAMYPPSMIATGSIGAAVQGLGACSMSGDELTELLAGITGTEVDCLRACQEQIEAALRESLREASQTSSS
Experimental: Cyclin-dependent kinase activity was measured by quantifying the enzyme-catalyzed, time-dependent incorporation of radioactive phosphate from [^32P]ATP or [^33P]ATP into a protein substrate. Unless noted otherwise, assays were performed in 96-well plates in a total volume of 50 μL, in the presence of 10 mM HEPES (N-[2-hydroxyethyl]piperazine-N′-[2-ethanesulfonic acid]) (pH 7.4), 10 mM MgCl2, 25 μM adenosine triphosphate (ATP), 1 mg/mL ovalbumin, 5 μg/mL leupeptin, 1 mM dithiothreitol, 10 mM β-glycerophosphate, 0.1 mM sodium vanadate, 1 mM sodium fluoride, 2.5 mM ethylene glycol-bis(β-aminoethyl ether)-N,N,N′N′-tetraacetic acid (EGTA), 2% (v/v) dimethylsulfoxide, and 0.03-0.4 μCi [^32/33P]ATP per reaction. Reactions were initiated with enzyme, incubated at 30° C., and terminated after 20 minutes by the addition of ethylenediaminetetraacetic acid (EDTA) to 250 mM. The phosphorylated substrate was then captured on a nitrocellulose or phosphocellulose membrane using a 96-well filtration manifold, and unincorporated radioactivity was removed by repeated washing with 0.85% phosphoric acid. Radioactivity was quantified by exposing the dried membranes to a phosphorimager.
Inhibition was measured relative to control wells that contained all reaction components including 2% (v/v) DMSO but no compound, after subtraction of background radioactivity measured in the absence of enzyme. Apparent Ki values of discrete compounds were measured by assaying enzyme activity in the presence of different inhibitor compound concentrations and subtracting the background radioactivity measured in the absence of enzyme. The kinetic parameters (kcat, Km for ATP) were measured for each enzyme under the usual assay conditions by determining the dependence of initial rates on ATP concentration. Inhibition data were fit to an equation for competitive inhibition using Kaleidagraph (Synergy Software), or were fit to an equation for competitive tight-binding inhibition using the software KineTic (BioKin, Ltd.).
Inhibition of CDK4/Cyclin D Retinoblastoma Kinase Activity:
A complex of human CDK4 and genetically truncated (1-264) cyclin D3 was purified using traditional biochemical chromatographic techniques from insect cells that had been co-infected with the corresponding baculovirus expression vectors (see e.g., Meijer and Kim, “Chemical Inhibitors of Cyclin-Dependent Kinases,” Methods in Enzymol,. vol. 283 (1997), pp. 113-128.). The enzyme complex (5 nM) was assayed with 0.3-0.5 μg of purified recombinant retinoblastoma protein fragment (Rb) as a substrate. The engineered Rb fragment (residues 386-928 of the native retinoblastoma protein; 62.3 kDa) contains the majority of the phosphorylation sites found in the native 106-kDa protein, as well as a tag of six histidine residues for ease of purification. Phosphorylated Rb substrate was captured by microfiltration on a nitrocellulose membrane and quantified using a phosphorimager as described above. For measurement of tight-binding inhibitors, the assay duration was extended to 60 minutes, during which the time-dependence of product formation was linear and initial rate conditions were met.

HCT-116 cell line = test: Inhibition of cell growth, tetrazolium salt (MTT) assay; type: cell-based; conditions: for pIC50: Homo sapiens, HCT-116, 120 h, MTT, three to five days
Method in brief: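 McCoy's 5A cultures; 4 h pre-incubation; compound dilutions in 0.5% v/v DMSO; 3–5 d, 37° C, 5% CO2; MTT 0.2 mg/mL final, 4 h; formazan dissolved in DMSO, A540; vs 0.5% DMSO vehicle.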

[2] = first HCT-116 column (c4), read-out: HCT-116 IC50
[3] = second HCT-116 column (c5), read-out: HCT-116 IC50

pKi (CDK2/Cyclin A)	pKi [1]	pIC50 (HCT-116 cell line; [2])	pIC50 (HCT-116 cell line; [3])	Structure (SMILES)	also measured
9.29	8.68	7.18	6.55	CC1CCC(NCCS(=O)(=O)N2CCC(Nc3nc(N)c(C(=O)c4c(F)cccc4F)s3)CC2)CC1 (mixture of isomers) [Example K40, (4-Amino-2-{1-[2-(4(cis/trans)-methyl-cyclohexylamino)-ethanesulfonyl]-piperidin-4-ylamino}-thiazol-5-yl)-(2,6-difluoro-phenyl)-methanone]	
9.24	8.62	7.29	6.52	CC1CCCC(NCCS(=O)(=O)N2CCC(Nc3nc(N)c(C(=O)c4c(F)cccc4F)s3)CC2)C1 (mixture of isomers) [Example K43, (4-Amino-2-{1-[2-(3(cis/trans)-methyl-cyclohexylamino)-ethanesulfonyl]-piperidin-4-ylamino}-thiazol-5-yl)-(2,6-difluoro-phenyl)-methanone]	
8.96	9.19	7.05	6.40	CC(CN(C)C)Oc1ccc(S(=O)(=O)N2CCC(Nc3nc(N)c(C(=O)c4c(F)cccc4F)s3)CC2)cn1 (racemic) [Example H13, 1-(4-Amino-2-{1-[6-(2-dimethylamino-1RS-methyl-ethoxy)-pyridine-3-sulfonyl]-piperidin-4-ylamino}-thiazol-5-yl)-1-(2,6-fifluoro-phenyl)-methanone Dihydrochloride]	
				Nc1nc(NC2CCN(C(=O)[C@@H]3C[C@H]3c3ccccc3)CC2)sc1C(=O)c1c(F)cccc1F (relative stereo) [Example Q55]	CDK2 % Inhibition at 0.03 μM (CDK2/Cyclin A; 0.03 μM compound, Table 4): 29%; CDK4 % Inhibition at 0.03 μM ([1]; 0.03 μM compound, Table 4): 43%; HCT-116 % Inhibition at 0.1 μM (HCT-116 cell line; 0.1 μM compound, HCT-116, Table 4): 10%; HCT-116 % Inhibition at 0.25 μM (HCT-116 cell line; 0.25 μM compound, HCT-116, Table 4): 31%
				Nc1nc(NC2CCN(C(=O)[C@@H]3C[C@H]3c3ccccc3)CC2)sc1C(=O)c1c(F)cccc1F (relative stereo) [Example R92]	CDK2 % Inhibition at 0.03 μM (CDK2/Cyclin A; at 0.03 μM): −9%; CDK4 % Inhibition at 0.03 μM ([1]; at 0.03 μM): −2%; HCT-116 % Inhibition at 0.1 μM (HCT-116 cell line; HCT-116 cells, at 0.1 μM): 0%; HCT-116 5 Inhibition at 0.25 μM (HCT-116 cell line; HCT-116 cells, at 0.25 μM): 40
8.96	9.15	7.32	< 6.30	CN1CCC[C@@H](COc2ccc(S(=O)(=O)N3CCC(Nc4nc(N)c(C(=O)c5c(F)cccc5F)s4)CC3)cn2)C1 (stereo in doubt) [Example H10, 1-(4-Amino-2-{1-[6-(1-methyl-piperidin-3R-ylmethoxy)-pyridine-3-sulfonyl]-piperidin-4-ylamino}-thiazol-5-yl)-1-(2,6-difluoro-phenyl)-methanone]	
6.31	6.89	5.77	5.51	Nc1nc(NC2CCN(Cc3ccccc3)CC2)sc1C(=O)c1c(F)cccc1F [Example A3, 1-[4-Amino-2-(1-benzyl-piperidin-4-ylamino)-thiazol-5-yl]-1-(2,6-difluoro-phenyl)-methanone]	
4.92	6.03	5.77	5.42	CN1CCC(Nc2nc(N)c(C(=O)c3c(F)cccc3F)s2)CC1 [Example A4, 1-[4-Amino-2-(1-methyl-piperidin-4-ylamino)-thiazol-5-yl]-1-(2,6-difluoro-phenyl)-methanone]	
< 5.70	< 5.70	< 5.30	< 5.30	Nc1nc(NC2CN(C(c3ccccc3)c3ccccc3)C2)sc1C(=O)c1c(F)cccc1F [Example A14, [4-Amino-2-(1-benzhydryl-azetidin-3-ylamino)-thiazol-5-yl]-(2,6-difluoro-phenyl)-methanone]	
7.55	6.96	6.46	6.02	CN(C)c1ccc(NC(=O)N2CCC(Nc3nc(N)c(C(=O)c4c(F)cccc4F)s3)CC2)cc1 [Example B2, 4-[4-Amino-5-(2,6-difluoro-benzoyl)-thiazol-2-ylamino]-piperidine-1-carboxylic Acid (4-Dimethylamino-phenyl)-amide]	
7.17	7.96	5.92	5.64	Nc1nc(NC2CCN(C(=O)c3ccc(I)cc3)CC2)sc1C(=O)c1c(F)cccc1F [Example C1, {4-Amino-2-[1-(4-iodo-benzoyl)-piperidin-4-ylamino]-thiazol-5-yl}-(2,6-difluoro-phenyl)-methanone]	
7.19	8.02	6.11	5.72	COc1ccc(C(=O)N2CCC(Nc3nc(N)c(C(=O)c4c(F)cccc4F)s3)CC2)cc1 [Example C2, {4-Amino-2-[1-(4-methoxy-benzoyl)-piperidin-4-ylamino]-thiazol-5-yl}-(2,6-difluoro-phenyl)-methanone]	
7.09	7.96	6.10	5.70	COC(=O)c1ccc(C(=O)N2CCC(Nc3nc(N)c(C(=O)c4c(F)cccc4F)s3)CC2)cc1 [Example C4, 4-{4-[4-Amino-5-(2,6-difluoro-benzoyl)-thiazol-2-ylamino]-piperidine-1-carbonyl}-benzoic Acid Methyl Ester]	
7.09	8.10	5.72	5.40	CC(C)S(=O)(=O)c1csc(C(=O)N2CCC(Nc3nc(N)c(C(=O)c4c(F)cccc4F)s3)CC2)c1Cl [Example C5, (4-Amino-2-{1-[3-chloro-4-(propane-2-sulfonyl)-thiophene-2-carbonyl]-piperidin-4-ylamino}-thiazol-5-yl)-(2,6-difluoro-phenyl)-methanone]	
7.49	7.40	6.22	5.80	COc1ccc(/C=C/C(=O)N2CCC(Nc3nc(N)c(C(=O)c4c(F)cccc4F)s3)CC2)c(Cl)c1OC [Example C7, 1-{4-[4-Amino-5-(2,6-difluoro-benzoyl)-thiazol-2-ylamino]-piperidin-1-yl}-3-(2-chloro-3,4-dimethoxy-phenyl)-propenone]	
7.35	7.39	6.34	5.89	Nc1nc(NC2CCN(C(=O)c3sccc3Cl)CC2)sc1C(=O)c1c(F)cccc1F [Example C8, {4-Amino-2-[1-(3-chloro-thiophene-2-carbonyl)-piperidin-4-ylamino]-thiazol-5-yl}-(2,6-difluoro-phenyl)-methanone]	

Structure (SMILES)	pKi (CDK2/Cyclin A)	pKi [1]	pIC50 (HCT-116 cell line; [2])	pIC50 (HCT-116 cell line; [3])	also measured
Nc1nc(NC2CCN(C(=O)Oc3ccc(Cl)cc3)CC2)sc1C(=O)c1c(F)cccc1F [Example C3, 4-[4-Amino-5-(2,6-difluoro-benzoyl)-thiazol-2-ylamino]-piperidine-1-carboxylic Acid 4-Chloro-phenyl Ester]	7.77	8.43			pIC50 (HCT-116 cell line; read-out: HCT-116 IC50, first HCT-116 column (c4)): 6.48; pIC50 (HCT-116 cell line; read-out: HCT-116 IC50, second HCT-116 column (c5)): 5.92
Nc1nc(NC2CCN(C(=S)Oc3ccccc3)CC2)sc1C(=O)c1c(F)cccc1F [Example C6, 4-[4-Amino-5-(2,6-difluoro-benzoyl)-thiazol-2-ylamino]-piperidine-1-carbothioic Acid O-Phenyl Ester]	8.21	8.10	6.66	6.05	
